# What was measured:
# [1] = Solubility of Pemetrexed diacid in water (statement); assay type: physicochemical
# [2] = Solubility study of Pemetrexed diacid in various amino acids in water; assay type: physicochemical; conditions: 25° C.
# Protocol: Solubility studies of Pemetrexed were performed with various amino acids alone and in combination with other excipients in water at 25° C. to check the solubility.
structure (smiles),measurement,setting,value
"Nc1nc2[nH]cc(CCc3ccc(C(=O)N[C@@H](CCC(=O)O)C(=O)O)cc3)c2c(=O)[nH]1 [Pemetrexed diacid, N-{4-[2-(2-Amino-4-oxo-4,7-dihydro-1H-pyrrolo[2,3-d]pyrimidin-5-yl)ethyl]benzoyl}-L-glutamic acid]",Solubility in water,[1],practically insoluble
same,Description (solubility study),"[2]; Pemetrexed diacid 50 mg, Arginine 116 mg, Water 1 ml",Clear
same,Description (solubility study),"[2]; Pemetrexed diacid 50 mg, Arginine 133 mg, Water 1 ml",Clear
same,Description (solubility study),"[2]; Pemetrexed diacid 50 mg, Arginine 166 mg, Water 1 ml",Clear
same,Description (solubility study),"[2]; Pemetrexed diacid 100 mg, Histidine 100 mg, Glycine 50 mg, Ammonium acetate 100 mg, Sucrose 50 mg, Water 2.5 ml",Clear
same,Description (solubility study),"[2]; Pemetrexed diacid 100 mg, Histidine 100 mg, Glycine 50 mg, Ammonium acetate 100 mg, Water 2.5 ml",Clear
same,Description (solubility study),"[2]; Pemetrexed diacid 100 mg, Histidine 100 mg, Glycine 100 mg, Ammonium acetate 100 mg, Sucrose 50 mg, Water 2.5 ml",Clear
same,Description (solubility study),"[2]; Pemetrexed diacid 100 mg, Histidine 100 mg, Glycine 100 mg, Ammonium acetate 100 mg, Water 2.5 ml",Clear
same,Description (solubility study),"[2]; Pemetrexed diacid 100 mg, Histidine 100 mg, Glycine 100 mg, Sucrose 50 mg, Water 2.5 ml",Clear
same,Description (solubility study),"[2]; Pemetrexed diacid 100 mg, Histidine 100 mg, Glycine 100 mg, Water 2.5 ml",Clear
same,Description (solubility study),"[2]; Pemetrexed diacid 100 mg, Histidine 100 mg, Glycine 200 mg, Ammonium acetate 100 mg, Sucrose 50 mg, Water 2.5 ml",Clear
same,Description (solubility study),"[2]; Pemetrexed diacid 100 mg, Histidine 100 mg, Glycine 200 mg, Ammonium acetate 100 mg, Water 2.5 ml",Clear

# — US20190224202A1, “STABLE LIQUID FORMULATIONS OF PEMETREXED” (LEIUTIS PHARMACEUTICALS PVT. LTD., priority 2015, published 2019)
